Experimental data from patent publication US20080107751A1, “Antimicrobial Wax Composition for Wax Therapy” (priority 2004, published 2008).

Columns and labels:
Streptococcus = assay: Growth and survival of Streptococcus in molten wax composition; format: cell-based; settings: triclosan 500 μg/ml up to 1000 μg/ml in molten wax
Description: (§1) This is the preferred concentration of the triclosan antimicrobial in the molten wax composition according to the present invention. As disclosed in connection with the below examples, this is about 0.18-0.2% by weight of the total composition.

[1] = test system: Salmonella (both enteritidis and typhimurium strains); assay: Growth and survival of Salmonella in molten wax composition; format: cell-based
Protocol: (§2) In its simplest form, the wax composition according to the present invention comprises a wax component and an antimicrobial component. The preferred wax is conventional, physio-therapy-grade paraffin wax that is solid at room temperature and has a melting point around 120° F. The preferred antimicrobial agent or component is triclosan, which is a phenolic, broad-spectrum antimicrobial that is generally regarded as safe for use on human skin, and even for ingestion by humans in small amounts. It is available from several sources, including Ciba Specialty Chemicals Corporation, 4090 Premier Drive, High Point, N.C. 27265. […] These bacteria were selected for testing as common human pathogens that are commonly found on the hands. Additionally, these pathogens also model the “survivability” of other pathogens that could be found in the melted wax.
as §1

E. Coli 0157 = assay: Growth and survival of E. Coli 0157 in molten wax composition; format: cell-based
Protocol: as §2, §1

Staphylococcus aurea = assay: Growth and survival of Staphylococcus in molten wax composition; format: cell-based, Staphylococcus aureus
Protocol: as §2, §1

human pathogens = assay: Growth of pathogens in molten wax composition containing triclosan; format: cell-based
Protocol: as §2, §1
The foregoing examples vary primarily in their fragrance and coloration. They are by way of example only and not intended to be by way of limitation. Variation of other components is regarded as within the invention. […]

[2] = molten wax, versus absence of triclosan
[3] = triclosan 500 μg/ml up to 1000 μg/ml in molten wax

Oc1cc(Cl)ccc1Oc1ccc(Cl)cc1Cl [triclosan]
growth and survival (Streptococcus): permitted growth and survival | time of survivability in wax composition ([1]; molten wax): decrease | growth of bacteria in wax composition [1, 2]: inhibit growth | growth and survival ([1]; triclosan 500 μg/ml up to 1000 μg/ml in molten wax, Salmonella apparently eliminated by heat alone): not | time of survivability in wax composition (E. Coli 0157; molten wax): decrease | growth of bacteria in wax composition (E. Coli 0157; [2]): inhibit growth | growth and survival (E. Coli 0157; [3]): permitted growth and survival | time of survivability in wax composition (Staphylococcus aurea; molten wax): decrease | growth of bacteria in wax composition (Staphylococcus aurea; [2]): inhibit growth | growth and survival (Staphylococcus aurea; [3]): permitted growth and survival | concentration that inhibits the growth of both pathogens (human pathogens; molten wax composition, about 0.18-0.2% by weight): 2000 µg/mL | concentration found to inhibit growth of pathogens in wax (human pathogens; wax maintained at 52.5° C. or 126.5° F., concentrations as low as): ≥ 500 µg/mL
